Results published in US5320094A (The Johns Hopkins University, priority 1992, dated 1994).
Where “and” joins values, the source holds several entries; their conditions need not be identical. Equal values may be shown once. Read-outs that look alike come from different tables or passages of the source.

Assays:
[1] = system: normal and NIDDM subjects; settings: inhaled
Method: (§1) Subjects 3, 4 and 6 were medicated with Glyburide 10 mg/day, 15 mg/day, and 5 mg/day, respectively. Subject No. 5 was treated with Diabinese 750 mg/day. Subject No. 7 was medicated with Glyburide 20 mg/day and Subject No. 8 was unmedicated. […] Blood samples were assessed at the time of collection for glucose levels with a glucose meter (Accuchek). Determinations of plasma glucose levels were also obtained from photometric reaction with glucose hexokinase using an Hitachi 736 and 737 chemical analyzer (Boehringer Mannheim Diagnostics). The reference range for fasting adults using this technique and equipment is 3.92-6.44 SI units. […] The expected range of values for normals in the fasting state, as provided by Diagnostics Products Corp., is 18-210 SI units. An IV saline solution was running, 50% glucose was available in case the blood glucose level decreased rapidly, and a diabetologist was present during the study. […] Studies were performed in the Johns Hopkins Outpatient Clinical Research Center. All patients who participated in these experiments gave informed consent to a written description of the study, which was approved by the Institutional Review Board.

[2] = system: normal subjects and non-insulin dependent diabetic (NIDDM) subjects; experiment: Blood glucose response after inhalation of aerosolized insulin; type: in vivo, human; settings: for Maximum Decrease in Glucose (% of Baseline): fasting
From the text: The timing of each aerosol actuation was controlled by a Rosenthal-French dosimeter and lasted for one second. […] The distance between the subject's mouth and the nebulizer reduced aerosol velocity and, thus, impaction of particles in the mouth. Inspiratory flow rate at the time of aerosol inhalation was regulated to less than 30 and, preferably about 17 liters/minute by rate limiting orifices of the type described above. During inhalation, patients inspired from residual volume to total lung capacity.
After the sixth actuation, aerosol was inhaled from the holding chamber through a mouthpiece. […] Each inhalation was proceeded by six actuations of the nebulizer.

diabetic subjects = settings: intranasal bile-salt aerosol; cited from earlier work
[3] = system: normal and non-insulin-dependent non-obese diabetic subjects; settings: rectal suppository; cited from earlier work
[4] = for Peak Insulin Level: fasting
From the text: The timing of each aerosol actuation was controlled by a Rosenthal-French dosimeter and lasted for one second. […] Inspiratory flow rate at the time of aerosol inhalation was regulated to less than 30 and, preferably about 17 liters/minute by rate limiting orifices of the type described above. During inhalation, patients inspired from residual volume to total lung capacity.
After the sixth actuation, aerosol was inhaled from the holding chamber through a mouthpiece. […]
To accomplish this dosing regime, volunteers inhaled 5-13 times from the holding chamber. Each inhalation was preceded by six actuations of the nebulizer.
as §1
When averaging decreases in blood glucose levels the data were normalized in terms of percent change from baseline.

rabbits = settings: micellar form, intrajejunal administration, reduction in blood glucose; cited from earlier work
[5] = NIDDM subject 3, 0.21 U/kg BW inhaled
[6] = NIDDM subject 4, 0.23 U/kg BW inhaled
[7] = NIDDM subject 5, 0.21 U/kg BW inhaled
[8] = NIDDM subject 6, 0.20 U/kg BW inhaled
[9] = NIDDM subject 7, 0.20 U/kg BW inhaled
[10] = NIDDM subject 8, 0.20 U/kg BW inhaled
[11] = eight subjects (second dose for subjects 1 and 2), mean dose 0.21 U/kg BW inhaled
[12] = normal subject 1, first dose, 0.09 U/kg BW inhaled
[13] = normal subject 1, second dose, 0.19 U/kg BW inhaled
[14] = normal subject 2, first dose, 0.11 U/kg BW inhaled
[15] = normal subject 2, second dose, 0.21 U/kg BW inhaled

insulin: regular U-500 pork insulin (Eli Lilly) aerosolized by a jet nebulizer; background citations concern insulin given by other routes
Adverse symptoms from the respiratory tract [1]: No adverse symptoms from the respiratory tract were reported or signs observed | Adrenergic, hypoglycemic signs or symptoms ([1]; listed as Aerosolized insulin): lack of any signs or symptoms, including adrenergic symptoms | Tolerability of aerosolized insulin ([1]; listed as Aerosolized insulin): very well tolerated | Tolerability of aerosolized insulin ([1]; listed as aerosolized insulin): well-tolerated | Adrenergic, hypoglycemic signs or symptoms ([1]; listed as insulin aerosol): none of the subjects had adrenergic, hypoglycemic symptoms | Tolerability of aerosolized insulin ([1]; listed as insulin aerosol): well-tolerated | Time to 10% Decrease in Glucose [2, 5]: 30 min | Time to Lowest Glucose Level [2, 5]: 150 min | Maximum Decrease in Glucose (% of Baseline) [2, 5]: 43% | Glucose level decreased to, after insulin inhalation ([2]; NIDDM subject 3, 0.21 U/kg BW inhaled, baseline 10.58): 6.05 SI units | Time to 10% Decrease in Glucose [2, 6]: 30 min | Time to Lowest Glucose Level [2, 6]: 160 min | Maximum Decrease in Glucose (% of Baseline) [2, 6]: 71% | Glucose level decreased to, after insulin inhalation ([2]; NIDDM subject 4, 0.23 U/kg BW inhaled, baseline 16.58): 4.82 SI units | Time to 10% Decrease in Glucose [2, 7]: 40 min | Time to Lowest Glucose Level [2, 7]: 200 min | Maximum Decrease in Glucose (% of Baseline) [2, 7]: 53% | Glucose level decreased to, after insulin inhalation ([2]; NIDDM subject 5, 0.21 U/kg BW inhaled, baseline 12.12): 5.71 SI units | Time to 10% Decrease in Glucose [2, 8]: 42 min | Time to Lowest Glucose Level [2, 8]: 140 min | Maximum Decrease in Glucose (% of Baseline) [2, 8]: 54% | Glucose level decreased to, after insulin inhalation ([2]; NIDDM subject 6, 0.20 U/kg BW inhaled, baseline 9.27): 4.26 SI units | Time to 10% Decrease in Glucose [2, 9]: 20 min | Time to Lowest Glucose Level [2, 9]: 120 min | Maximum Decrease in Glucose (% of Baseline) [2, 9]: 61% | Glucose level decreased to, after insulin inhalation ([2]; NIDDM subject 7, 0.20 U/kg BW inhaled, baseline 13.94): 5.49 SI units | Time to 10% Decrease in Glucose [2, 10]: 60 min | Time to Lowest Glucose Level [2, 10]: 150 min | Maximum Decrease in Glucose (% of Baseline) [2, 10]: 49% | Glucose level decreased to, after insulin inhalation ([2]; NIDDM subject 8, 0.20 U/kg BW inhaled, baseline 13.30): 6.78 SI units | Mean maximum decrease in glucose from baseline ([2]; NIDDM subjects, 0.2 U/kg BW inhaled): 55±10% | Shift of blood glucose levels to the normal range ([2]; NIDDM subjects, approximately 0.2 U/kg BW aerosolized insulin, normal range 4.20-6.44 SI units): shifted blood glucose levels of five of the six NIDDM subjects to within the normal range | Maximum Decrease in Glucose (% of Baseline), mean ([2]; eight subjects (second dose for subjects 1 and 2), 0.2 U/kg BW inhaled): 52±10% and 52% | Time to 10% Decrease in Glucose, mean [2, 11]: 36 ± 15 min and 36 min | Time to Lowest Glucose Level (time to maximum decrease in blood glucose), mean [2, 11]: 138 ± 46 min and 138 min | Glucose level decreased to, after insulin inhalation ([2]; normal subject 1, 0.09 U/kg BW inhaled, baseline 4.70): 4.09 SI units | Glucose level decreased to, after insulin inhalation ([2]; normal subject 1, 0.19 U/kg BW inhaled, baseline 4.70): 3.08 SI units | Time to 10% Decrease in Glucose [2, 12]: 35 min | Time to Lowest Glucose Level [2, 12]: 80 min | Maximum Decrease in Glucose (% of Baseline) [2, 12]: 13% | Time to 10% Decrease in Glucose [2, 13]: 50 min | Time to Lowest Glucose Level [2, 13]: 140 min | Maximum Decrease in Glucose (% of Baseline) [2, 13]: 34% | Glucose level decreased to, after insulin inhalation ([2]; normal subject 2, 0.11 U/kg BW inhaled, baseline 3.95): 3.14 SI units | Glucose level decreased to, after insulin inhalation ([2]; normal subject 2, 0.21 U/kg BW inhaled, baseline 4.34): 2.24 SI units | Time to 10% Decrease in Glucose [2, 14]: 5 min | Time to Lowest Glucose Level [2, 14]: 40 min | Maximum Decrease in Glucose (% of Baseline) [2, 14]: 20% | Time to 10% Decrease in Glucose [2, 15]: 15 min | Time to Lowest Glucose Level [2, 15]: 40 min | Maximum Decrease in Glucose (% of Baseline) [2, 15]: 48% | Mean maximum decrease in glucose from baseline ([2]; normal subjects, 0.2 U/kg BW inhaled): 41±10% | Effect on blood glucose levels ([2]; normal subjects, approximately 0.2 U/kg BW aerosolized insulin to the mouth): effectively lowered blood glucose levels in the normal subjects | Amount of insulin absorbed through the nasal mucosa, relative to dose delivered by intravenous injection (diabetic subjects): approximately 10% | Dose required to lower blood glucose, relative to subcutaneous dose (diabetic subjects): 2.5 times | Local effects after intranasal administration (diabetic subjects): subjects reported nasal irritation and nasal congestion | Complaints after rectal administration [3]: some subjects complained of abdominal discomfort or a feeling of rectal urgency | Dose necessary to lower blood glucose significantly, relative to subcutaneous dose [3]: 10 times | Time to Peak Insulin Level [4, 5]: 5 min | log Peak Insulin Level [4, 5]: 2.7694 | Peak Insulin Level [4, 5]: 588 SI units | Time to Peak Insulin Level [4, 6]: 15 min | log Peak Insulin Level [4, 6]: 2.2967 | Peak Insulin Level [4, 6]: 198 SI units | Time to Peak Insulin Level [4, 7]: 40 min | log Peak Insulin Level [4, 7]: 2.3096 | Peak Insulin Level [4, 7]: 204 SI units | Time to Peak Insulin Level [4, 8]: 52 min | log Peak Insulin Level [4, 8]: 2.3909 | Peak Insulin Level [4, 8]: 246 SI units | Time to Peak Insulin Level [4, 9]: 25 min | log Peak Insulin Level [4, 9]: 2.0569 | Peak Insulin Level [4, 9]: 114 SI units | Time to Peak Insulin Level [4, 10]: 100 min | log Peak Insulin Level [4, 10]: 2.7513 | Peak Insulin Level [4, 10]: 564 SI units | Return of blood insulin levels to baseline ([4]; approximately 0.2 U/kg BW inhaled, up to 200 minutes): did not return to baseline by the time the experiment was concluded in seven of the study subjects | Peak Insulin Level, geometric mean [4, 11]: 254 SI units | Time to Peak Insulin Level, mean [4, 11]: 35 min and 35 ± 31 min | log Peak Insulin Level, mean [4, 11]: 2.4055 | Insulin absorption across the lung mucosa compared with subcutaneous administration ([4]; inhaled aerosol): more rapid than following subcutaneous administration | Time to Peak Insulin Level [4, 12]: 10 min | log Peak Insulin Level [4, 12]: 2.1399 | Peak Insulin Level [4, 12]: 138 SI units | Time to Peak Insulin Level [4, 13]: 35 min | log Peak Insulin Level [4, 13]: 2.3345 | Peak Insulin Level [4, 13]: 216 SI units | Time to Peak Insulin Level [4, 14]: 5 min | log Peak Insulin Level [4, 14]: 2.4771 | Peak Insulin Level [4, 14]: 300 SI units | Time to Peak Insulin Level [4, 15]: 5 min | log Peak Insulin Level [4, 15]: 2.3345 | Peak Insulin Level [4, 15]: 216 SI units | Time at which blood insulin levels peaked post inhalation, range ([4]; range over all subjects and doses): between five and one hundred minutes | Required dose relative to intramuscular dose (rabbits): 25-50 times
